16 molecules from the supplement of paper PMC6331611 can be followed below.

By MIC is commonly meant the lowest concentration found to suppress growth.

Values after ≈ are worked out from the molar mass of the structure shown. Counter-ions that a name gives are not always drawn. Where only a bound is given, the exact number is not on record here.

The subject of assay [1] is Salmonella enterica serovar Typhimurium SL1344.
For assay [2] the test system is unchanged. The assay can be described thus: intracellular MIC (10-fold luminescence reduction); higher = less potent. As to conditions: RAW264.7 macrophages.
In a further assay the test system is RAW264.7. The assay can be described thus: cytotoxicity (LDH release relative to maximum lysis); higher = more toxic. As to conditions: 50 µM; 2 h. On the technique in general: Release of lactate dehydrogenase indicates damage to the cell membrane.

For `CO[C@]12C[C@@H](COC(=O)c3cncc(Br)c3)CN(C)[C@@H]1Cc1cn(C)c3cccc2c13` [NICERGOLINE], the MIC in assay [1] (LPM pH 5.8), in assay [1] (MHB) and in assay [1] (MOPS glucose minimal medium) was over 50 µM each time. Further, the “intracellular MIC” value in assay [2] is 25 µM. The same molecule showed a cytotoxicity in the assay on RAW264.7 of 20.4%.

On to `COC(=O)C1=C(C)NC(C)=C(C(=O)OCC(C)C)C1c1ccccc1[N+](=O)[O-]` (stereo not given) [NISOLDIPINE], for which the minimum inhibitory concentration (MIC) was 12.5 µM (≈ 4.86 µg/mL) in assay [1] (LPM pH 5.8), over 50 µM in assay [1] (MHB) and over 50 µM in assay [1] (MOPS glucose minimal medium). The “intracellular MIC” value in assay [2] is over 50 µM. In the assay with RAW264.7, this molecule showed a cytotoxicity of 20.8%.

On to `O=[N+]([O-])c1ccc(O)c2ncccc12` [NITROXOLINE], for which the figures for the MIC in assay [1] (LPM pH 5.8), in assay [1] (MHB) and in assay [1] (MOPS glucose minimal medium) were at most 0.78 µM, 25 µM (≈ 4.75 µg/mL) and 6.25 µM (≈ 1.19 µg/mL), respectively. For the same molecule, the “intracellular MIC” value in assay [2] was over 50 µM. This molecule also had a cytotoxicity in the assay with RAW264.7 of 14.6%.

On to `CCn1cc(C(=O)O)c(=O)c2cc(F)c(N3CCNCC3)cc21` [NORFLOXACIN], for which the MIC in assay [1] (LPM pH 5.8) was 1.56 µM (≈ 0.498 µg/mL); in assay [1] (MHB) it was at most 0.78 µM; in assay [1] (MOPS glucose minimal medium), at most 0.78 µM. In assay [2], the “intracellular MIC” value turned out to be 1.56 µM. This molecule registered a cytotoxicity in the assay on RAW264.7 of 8.22%.

For the molecule `CO[C@@H]1[C@@H](OC(N)=O)[C@@H](O)[C@H](Oc2ccc3c(O)c(NC(=O)c4ccc(O)c(CC=C(C)C)c4)c(=O)oc3c2C)OC1(C)C` [NOVOBIOCIN SODIUM], the minimal inhibitory concentration (MIC) was 1.17 µM in assay [1] (LPM pH 5.8), over 50 µM in assay [1] (MHB) and over 50 µM in assay [1] (MOPS glucose minimal medium). In addition, the “intracellular MIC” value in assay [2] was over 50 µM. In the assay on RAW264.7, this molecule displayed a cytotoxicity of 7.98%.

Regarding `CC1COc2c(N3CCN(C)CC3)c(F)cc3c(=O)c(C(=O)O)cn1c23` (stereo not given) [OFLOXACIN], the MIC in assay [1] (LPM pH 5.8), in assay [1] (MHB) and in assay [1] (MOPS glucose minimal medium) was at most 0.78 µM in each case. Further, the “intracellular MIC” value in assay [2] amounted to 1.56 µM. Besides, in the assay on RAW264.7, the cytotoxicity was determined as 6.6%.

As for `C[C@@H]1CN(c2c(F)c(F)c3c(=O)c(C(=O)O)cn(C4CC4)c3c2F)C[C@H](C)N1` [ORBIFLOXACIN], the MIC is 3.13 µM (≈ 1.24 µg/mL) in assay [1] (LPM pH 5.8), 3.13 µM (≈ 1.24 µg/mL) in assay [1] (MHB) and at most 0.78 µM in assay [1] (MOPS glucose minimal medium). In addition, the “intracellular MIC” value in assay [2] is at most 0.78 µM. This molecule also had a cytotoxicity with RAW264.7 of 15.3%.

Consider `CCn1cc(C(=O)O)c(=O)c2cc3c(cc21)OCO3` [OXOLINIC ACID], for which the MIC in assay [1] (LPM pH 5.8) is 1.56 µM (≈ 0.408 µg/mL); in assay [1] (MHB), 3.13 µM (≈ 0.818 µg/mL); in assay [1] (MOPS glucose minimal medium) it was at most 0.78 µM. In assay [2], the “intracellular MIC” value turned out to be 1.56 µM. Further, in the assay on RAW264.7, the cytotoxicity amounted to 6.86%.

In the case of `COc1ccc(C(=O)c2ccccc2)c(O)c1` [OXYBENZONE], the MIC in assay [1] (LPM pH 5.8), in assay [1] (MHB) and in assay [1] (MOPS glucose minimal medium) was over 50 µM throughout. Also, the “intracellular MIC” value in assay [2] worked out at 1.56 µM. In the assay with RAW264.7, this molecule yielded a cytotoxicity of 6.44%.

With `CN(C)[C@@H]1C(O)=C(C(N)=O)C(=O)[C@@]2(O)C(O)=C3C(=O)c4c(O)cccc4[C@@](C)(O)[C@H]3[C@H](O)[C@@H]12` [OXYTETRACYCLINE], the figures for the MIC in assay [1] (LPM pH 5.8), in assay [1] (MHB) and in assay [1] (MOPS glucose minimal medium) were at most 0.78 µM, 6.25 µM (≈ 2.88 µg/mL) and 12.5 µM (≈ 5.76 µg/mL), respectively. The “intracellular MIC” value in assay [2] was 6.25 µM. This molecule also had a cytotoxicity in the assay on RAW264.7 of 15.7%.

On to `C[C@H]1COc2c(C3(N)CC3)c(F)cc3c(=O)c(C(=O)O)cn1c23` [PAZUFLOXACIN MESYLATE], for which the MIC in assay [1] (LPM pH 5.8), in assay [1] (MHB) and in assay [1] (MOPS glucose minimal medium) was at most 0.78 µM in each case. Also, the “intracellular MIC” value in assay [2] was at most 0.78 µM. In the assay on RAW264.7, this molecule showed a cytotoxicity of 12.2%.

Regarding `CCn1cc(C(=O)O)c(=O)c2cc(F)c(N3CCN(C)CC3)cc21` [PEFLOXACINE MESYLATE], the MIC in assay [1] (LPM pH 5.8), in assay [1] (MHB) and in assay [1] (MOPS glucose minimal medium) was at most 0.78 µM in each case. Besides, the “intracellular MIC” value in assay [2] amounted to 1.56 µM. In addition, the cytotoxicity in the assay with RAW264.7 was 20.7%.

With `O=C(O)CN(CCN(CC(=O)O)CC(=O)O)CCN(CC(=O)O)CC(=O)O` [PENTETIC ACID], the MIC in assay [1] (LPM pH 5.8) is at most 0.78 µM; in assay [1] (MHB), over 50 µM; in assay [1] (MOPS glucose minimal medium) it was over 50 µM. Moreover, in assay [2], the “intracellular MIC” value came to 1.56 µM. The molecule also yielded a cytotoxicity in the assay on RAW264.7 of 7.12%.

In the case of `CNC[C@H](O)c1cccc(O)c1` [PHENYLEPHRINE HYDROCHLORIDE], the MIC in assay [1] (LPM pH 5.8), in assay [1] (MHB) and in assay [1] (MOPS glucose minimal medium) was over 50 µM in each case. Also, the “intracellular MIC” value in assay [2] was at most 0.78 µM. This molecule came in with a cytotoxicity in the assay with RAW264.7 of 6.89%.

Regarding `CC(=O)[O][Hg][c]1ccccc1` [PHENYLMERCURIC ACETATE], the MIC in assay [1] (LPM pH 5.8), in assay [1] (MHB) and in assay [1] (MOPS glucose minimal medium) was at most 0.78 µM throughout. Also, in assay [2], the “intracellular MIC” value is at most 0.78 µM. In the assay with RAW264.7, the cytotoxicity was 22.2%.

Turning to `CNC(=O)Oc1ccc2c(c1)[C@]1(C)CCN(C)[C@@H]1N2C` [PHYSOSTIGMINE SALICYLATE], the MIC was 12.5 µM (≈ 3.44 µg/mL) in assay [1] (LPM pH 5.8), over 50 µM in assay [1] (MHB) and over 50 µM in assay [1] (MOPS glucose minimal medium). In assay [2], the “intracellular MIC” value is at most 0.78 µM. The same molecule displayed a cytotoxicity in the assay with RAW264.7 of 7.34%.
